Test system: mice
Assay: Neuropharmacological Assay (SmartCube)
Format: in vivo
Settings: for minimal effective dose: Mus musculus, MED = dose having 50% or more total activity in SmartCube, read-out: POTENCY (minimal effective dose, MED); for AD: ADHD (SmartCube probability) / AG: analgesic (SmartCube probability) / AX: anxiolytic (SmartCube probability) / CE: cognitive enhancer (SmartCube probability) / DP: anti-depressant (SmartCube probability) / MS: mood stabilizer (SmartCube probability) / PS: anti-psychotic (SmartCube probability) / SD: sedative hypnotic (SmartCube probability) / UN: uncharacterized CNS activity (SmartCube probability): mice, i.p. 15 min before test, most efficacious dose(s) of 3 doses
Source text: Neuropharmacological Assay (SmartCube™)
Neurosci. 2011 Sep. 9; 5:103 (doi: 10.3389/fnins.2011.00103) (“Roberds”). As reported in Roberds, because psychiatric diseases generally result from disorders of cell-cell communication, circuitry, intact systems are useful in detecting improvement in disease-relevant endpoints. These endpoints are typically behavioral in nature, often requiring human observation and interpretation. To facilitate testing of multiple compounds for behavioral effects relevant to psychiatric disease, PsychoGenics, Inc. (Tarrytown, N.Y., “PGI”) developed SmartCube™, an automated system in which behaviors of compound-treated mice are captured by digital video and analyzed with computer algorithms. (D. Brunner et al., Drug Discov. Today 2002, 7:S107-S112). PGI Analytical Systems uses data from SmartCube™ to compare the behavioral signature of a test compound to a database of behavioral signatures obtained using a large set of diverse reference compounds. (The composition of the database as well as validation of the method is further described in Roberds). In this way, the neuropharmacological effects of a test compound can be predicted by similarity to major classes of compounds, such as antipsychotics, anxiolytics and antidepressants.
The SmartCube™ system produces an activity signature indicating the probability that the activity of the test compound at the administered dose matches a given class of neuropharmacological agents. (See, e.g., Roberds, FIGS. 2 and 3). The test compound is simultaneously compared against multiple classes of agents; thus, a separate probability is generated for each behavioral effect measured (e.g., anxiolytic activity, analgesic activity, etc.). In the table below, these probabilities are reported for each behavioral effect measured as follows:
where LOQ is the limit of quantification.
Provided compounds were dissolved in a mixture of Pharmasolve™ (N-methyl-2-pyrrolidone), polyethylene glycol and propylene glycol, and were injected i.p. 15 min. before the behavioral test. For each compound, injections were administered at 3 different doses. For each behavioral effect measured, results for the most efficacious dose(s) are presented. In the table below, DP: anti-depressant; AX: anxiolytic; SD: sedative hypnotic; PS: anti-psychotic; MS: mood stabilizer; AD: ADHD; CE: cognitive enhancer; AG: analgesic; UN: uncharacterized CNS activity.
The potency of many of the compounds in the table was also determined in the SmartCube™ system. Test compounds were routinely examined at dose levels of 0.3, 1, 3 10 and 30 mg per kg (mpk), although the dose range was increased or decreased if necessary to obtain a full dose response curve. A compound's minimal effective dose (MED) is a measure of the compounds potency. The MED was defined as the dose (in mpk) having 50% or more total activity in SmartCube.

Structure (SMILES)	minimal effective dose [mg/kg]	AD: ADHD (SmartCube probability)	AG: analgesic (SmartCube probability)	AX: anxiolytic (SmartCube probability)	CE: cognitive enhancer (SmartCube probability)	DP: anti-depressant (SmartCube probability)	MS: mood stabilizer (SmartCube probability)	PS: anti-psychotic (SmartCube probability)	SD: sedative hypnotic (SmartCube probability)	UN: uncharacterized CNS activity (SmartCube probability)
CNC[C@@H]1OCCc2c(O)cc3c(c21)OCO3 (single isomer, unassigned) [Example 103]	> 30	+ (LOQ≤ + <5%)	+ (LOQ≤ + <5%)	+ (LOQ≤ + <5%)	+ (LOQ≤ + <5%)	+ (LOQ≤ + <5%)	+ (LOQ≤ + <5%)	+ (LOQ≤ + <5%)	+ (LOQ≤ + <5%)	+ (LOQ≤ + <5%)
CNC[C@H]1OCCc2c(O)cc3c(c21)OCO3 (single isomer, unassigned) [Example 104]	< 3	+ (LOQ≤ + <5%)	+ (LOQ≤ + <5%)	+++ (25%≤ +++ <50%)	++ (5%≤ ++ <25%)	++++ (50%≤ ++++)	+ (LOQ≤ + <5%)	+ (LOQ≤ + <5%)	++ (5%≤ ++ <25%)	++ (5%≤ ++ <25%)
CNC[C@@H]1OC[C@@H](O)c2ccc3c(c21)OCO3 (single isomer, unassigned) [Example 111]	10 to 30	+ (LOQ≤ + <5%)	+ (LOQ≤ + <5%)	++ (5%≤ ++ <25%)	+ (LOQ≤ + <5%)	++++ (50%≤ ++++)	+ (LOQ≤ + <5%)	++ (5%≤ ++ <25%)	+ (LOQ≤ + <5%)	+ (LOQ≤ + <5%)
CNC[C@H]1OC[C@H](O)c2ccc3c(c21)OCO3 (single isomer, unassigned) [Example 112]	> 30	+ (LOQ≤ + <5%)	+ (LOQ≤ + <5%)	++ (5%≤ ++ <25%)	+ (LOQ≤ + <5%)	++ (5%≤ ++ <25%)	+ (LOQ≤ + <5%)	+ (LOQ≤ + <5%)	+ (LOQ≤ + <5%)	+ (LOQ≤ + <5%)
CNC[C@H]1OC[C@@H](O)c2ccc3c(c21)OCO3 (single isomer, unassigned) [Example 113]	> 30	+ (LOQ≤ + <5%)	+ (LOQ≤ + <5%)	++ (5%≤ ++ <25%)	+ (LOQ≤ + <5%)	+ (LOQ≤ + <5%)	+ (LOQ≤ + <5%)	+ (LOQ≤ + <5%)	+ (LOQ≤ + <5%)	+ (LOQ≤ + <5%)
CNC[C@@H]1OC[C@H](O)c2ccc3c(c21)OCO3 (single isomer, unassigned) [Example 114]	10 to 30	+ (LOQ≤ + <5%)	+ (LOQ≤ + <5%)	++ (5%≤ ++ <25%)	+ (LOQ≤ + <5%)	+ (LOQ≤ + <5%)	+ (LOQ≤ + <5%)	++ (5%≤ ++ <25%)	+ (LOQ≤ + <5%)	+++ (25%≤ +++ <50%)

Source: US10196403B2, “Compounds and compositions and uses thereof” (Sunovion Pharmaceuticals Inc., priority 2016, dated 2019)
